Laboratory results published in US20100022491A1, “4-HYDROXY-2-OXO-2,3-DIHYDRO-1,3-BENZOTHIAZOL-7YL COMPOUNDS FOR MODULATION OF B2-ADRENORECEPTOR ACTIVITY” (ASTRAZENECA AB, priority 2006, published 2010).
Structures can show the parent of a compound that is named as a salt.

Key:
Adrenergic β2 = biological target: T1, Adrenergic β2 (Homo sapiens, UniProt P07550); assay: Adrenergic β2 mediated cAMP production in H292 cells; format: cell-based; settings: for EC50: H292 cells, cAMP by AlphaScreen, 60 minutes at room temperature, rolipram 300 μM, read-out: β2 pEC50 (converted); for β2 Int Act: Intrinsic Activity as a fraction relative to the maximum activity determined for formoterol
T1 construct: Adherent H292 cells were removed from tissue culture flasks; endogenous in cells; host or cells: H292 cells
Description: Adrenergic β2 mediated cAMP production
H292 cells were grown in 225 cm2 flasks incubator at 37° C., 5% CO2 in RPMI medium containing, 10% (v/v) FBS (foetal bovine serum) and 2 mM L-glutamine.
Adherent H292 cells were removed from tissue culture flasks by treatment with Accutase™ cell detachment solution for 15 minutes. Flasks were incubated for 15 minutes in a humidified incubator at 37° C., 5% CO2. Detached cells were re-suspended in RPMI media (containing 10% (v/v) FBS and 2 mM L-glutamine) at 0.05×10^6 cells per mL. 5000 cells in 100 μL were added to each well of a tissue-culture-treated 96-well plate and the cells incubated overnight in a humidified incubator at 37° C., 5% CO2. The culture media was removed and cells were washed twice with 100 μL assay buffer and replaced with 50 μL assay buffer (HBSS solution containing 10 mM HEPES pH7.4 and 5 mM glucose). Cells were rested at room temperature for 20 minutes after which time 25 μL of rolipram (1.2 mM made up in assay buffer containing 2.4% (v/v) dimethylsulphoxide) was added. Cells were incubated with rolipram for 10 minutes after which time test compounds were added and the cells were incubated for 60 minutes at room temperature. The final rolipram concentration in the assay was 300 μM and final vehicle concentration was 1.6% (v/v) dimethylsulphoxide. The reaction was stopped by removing supernatants, washing once with 100 μL assay buffer and replacing with 50 μL lysis buffer. The cell monolayer was frozen at −80° C. for 30 minutes (or overnight).
The concentration of cAMP (cyclic adenosine monophosphate) in the cell lysate was determined using AlphaScreen™ methodology. The frozen cell plate was thawed for 20 minutes on a plate shaker then 10 μL of the cell lysate was transferred to a 96-well white plate. 40 μL of mixed AlphaScreen™ detection beads pre-incubated with biotinylated cAMP, was added to each well and the plate incubated at room temperature for 10 hours in the dark. The AlphaScreen™ signal was measured using an EnVision spectrophotometer (Perkin-Elmer Inc.) with the recommended manufacturer's settings. cAMP concentrations were determined by reference to a calibration curve determined in the same experiment using standard cAMP concentrations. Concentration response curves for agonists were constructed and data was fitted to a four parameter logistic equation to determine both the pEC50 and Intrinsic Activity. Intrinsic Activity was expressed as a fraction relative to the maximum activity determined for formoterol in each experiment.

[1] = biological target: T2, recombinant human Dopamine Subtype D2s receptors (Homo sapiens, UniProt P14416); assay: Dopamine D2 selectivity binding assay ([3H]-spiperone); settings: inhibition of [3H]-spiperone (0.16 nM) binding; read-out: D2 bind pIC50 (converted)
T2 construct: purchased Perkin Elmer
Description: Membranes containing recombinant human Dopamine Subtype D2s receptors were obtained from Perkin Elmer. These were diluted in Assay Buffer (50 mM HEPES, 1 mM EDTA, 120 mM NaCl, 0.1% gelatin, pH 7.4) to provide a final concentration of membranes that gave a clear window between maximum and minimum specific binding.
Assays were performed in U-bottomed 96-well polypropylene plates. 30 μL [^3H]-spiperone (0.16 nM final concentration) and 30 μL of test compound (10× final concentration) were added to each test well. For each assay plate 8 replicates were obtained for [^3H]-spiperone binding in the presence of 30 μL vehicle (10% (v/v) DMSO in Assay Buffer; defining maximum binding) or 30 μL Haloperidol (10 μM final concentration; defining non-specific binding (NSB)). Membranes were then added to achieve a final volume of 300 μL. The plates were incubated for 2 hours at room temperature and then filtered onto PEI coated GF/B filter plates, pre-soaked for 1 hour in Assay Buffer, using a 96-well plate Tomtec cell harvester. Five washes with 250 μL wash buffer (50 mM HEPES, 1 mM EDTA, 120 mM NaCl, pH 7.4) were performed at 4° C. to remove unbound radioactivity. The plates were dried then sealed from underneath using Packard plate sealers and MicroScint-O (50 μL) was added to each well. The plates were sealed (TopSeal A) and filter-bound radioactivity was measured with a scintillation counter (TopCount, Packard BioScience) using a 3-minute counting protocol.
Total specific binding (B0) was determined by subtracting the mean NSB from the mean maximum binding. NSB values were also subtracted from values from all other wells. […] Data was fitted to a four parameter logistic equation to determine the compound potency, which was expressed as pIC50 (negative log molar concentration inducing 50% inhibition of [^3H]-spiperone binding).

T1 sequence (P07550 whole entry): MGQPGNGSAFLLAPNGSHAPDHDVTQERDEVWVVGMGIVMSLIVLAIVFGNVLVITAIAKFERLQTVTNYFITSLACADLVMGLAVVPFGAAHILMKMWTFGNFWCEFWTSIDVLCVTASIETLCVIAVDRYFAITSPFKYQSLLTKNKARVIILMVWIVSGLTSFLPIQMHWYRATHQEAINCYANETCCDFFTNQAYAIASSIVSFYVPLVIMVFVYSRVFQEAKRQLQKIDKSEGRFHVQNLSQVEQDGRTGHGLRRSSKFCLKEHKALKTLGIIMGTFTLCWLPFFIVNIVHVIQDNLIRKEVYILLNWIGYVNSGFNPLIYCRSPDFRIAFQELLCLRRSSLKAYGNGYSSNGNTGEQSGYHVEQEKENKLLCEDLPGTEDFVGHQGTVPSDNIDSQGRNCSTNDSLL
T2 sequence (P14416 1-414 isoform P14416-2): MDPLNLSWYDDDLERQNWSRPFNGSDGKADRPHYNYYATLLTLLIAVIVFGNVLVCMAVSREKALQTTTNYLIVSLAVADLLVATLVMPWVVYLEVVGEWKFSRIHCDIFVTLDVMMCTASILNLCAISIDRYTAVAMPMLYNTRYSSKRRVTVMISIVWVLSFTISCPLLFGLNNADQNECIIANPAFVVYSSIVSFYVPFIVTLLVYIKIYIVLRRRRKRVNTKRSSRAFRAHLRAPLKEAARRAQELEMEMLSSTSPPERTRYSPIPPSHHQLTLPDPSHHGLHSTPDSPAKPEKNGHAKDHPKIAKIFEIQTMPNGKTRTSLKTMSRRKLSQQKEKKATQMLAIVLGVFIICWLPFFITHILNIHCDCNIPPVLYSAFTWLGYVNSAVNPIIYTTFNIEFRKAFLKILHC

SMILES | EC50 (Adrenergic β2) | β2 Int Act (Adrenergic β2) | IC50 [1]
CCCC[C@@H](C)N(CCNCCc1ccc(O)c2[nH]c(=O)sc12)C(=O)CCNCCc1ccccc1 [Example 101, N-(2-{[2-(4-Hydroxy-2-oxo-2,3-dihydro-1,3-benzothiazol-7-yl)ethyl]amino}ethyl)-N-[(1R)-1-methylpentyl]-N^3-(2-phenylethyl)-β-alaninamide bis-trifluoroacetic acid salt] | 0.00251 µM | 0.98 | 0.0316 µM
O=C(CCNCCc1ccc(Cl)s1)N(CCNCCc1ccc(O)c2[nH]c(=O)sc12)C1CCCCC1 [Example 72, N^3-[2-(5-Chloro-2-thienyl)ethyl]-N^1-cyclohexyl-N^1-(2-{[2-(4-hydroxy-2-oxo-2,3-dihydro-1,3-benzothiazol-7-yl)ethyl]amino}ethyl)-β-alaninamide bis-trifluoroacetic acid salt] | 0.00398 µM | 0.89 | 0.126 µM
O=C(NCc1ccccc1)c1ccc(CCNCCC(=O)N(CCNCCc2ccc(O)c3[nH]c(=O)sc23)C2CCCCCC2)cc1 [Example 100, N-Benzyl-4-[2-({3-[cycloheptyl(2-{[2-(4-hydroxy-2-oxo-2,3-dihydro-1,3-benzothiazol-7-yl)ethyl]amino}ethyl)amino]-3-oxopropyl}amino)ethyl]benzamide bis-trifluoroacetic acid salt] | 0.00631 µM | 0.81 | 0.0316 µM
CC(C)(C)CN(CCNCCc1ccc(O)c2[nH]c(=O)sc12)C(=O)CCNCCc1cccc(F)c1 [Example 44, N^1-(2,2-Dimethylpropyl)-N^3-[2-(3-fluorophenyl)ethyl]-N^1-(2-{[2-(4-hydroxy-2-oxo-2,3-dihydro-1,3-benzothiazol-7-yl)ethyl]amino}ethyl)-β-alaninamide bis-trifluoroacetic acid salt] | 0.00631 µM | 0.73 | 0.126 µM
O=C(CCNCCc1ccc(F)cc1)N(CCNCCc1ccc(O)c2[nH]c(=O)sc12)C1CCCCC1 [Example 16, N-Cyclohexyl-N^3-[2-(4-fluorophenyl)ethyl]-N-(2-{[2-(4-hydroxy-2-oxo-2,3-dihydro-1,3-benzothiazol-7-yl)ethyl]amino}ethyl)-β-alaninamide bis-trifluoroacetic acid salt] | 0.00398 µM | 0.91 | 0.631 µM
CC(CN(C(=O)CCNCCc1ccccc1)C1CCCCC1)NCCc1ccc(O)c2[nH]c(=O)sc12 (stereo not drawn) [Example 105, N-Cyclohexyl-N-(2-{[2-(4-hydroxy-2-oxo-2,3-dihydro-1,3-benzothiazol-7-yl)ethyl]amino}propyl)-N^3-(2-phenylethyl)-β-alaninamide bis-trifluoroacetic acid salt] | 0.00631 µM | 0.86 | 0.316 µM
O=C(CCNCCc1ccccc1)N(CCNCCc1ccc(O)c2[nH]c(=O)sc12)CC12CC3CC(CC(C3)C1)C2 [Example 59, N^1-(1-Adamantylmethyl)-N^1-(2-{[2-(4-hydroxy-2-oxo-2,3-dihydro-1,3-benzothiazol-7-yl)ethyl]amino}ethyl)-N^3-(2-phenylethyl)-β-alaninamide bis-trifluoroacetic acid salt] | 0.00501 µM | 0.85 | 0.398 µM
O=C(CCNCCc1cccc(F)c1)N(CCNCCc1ccc(O)c2[nH]c(=O)sc12)C1CCCCC1 [Example 96, N-Cyclohexyl-N^3-[2-(3-fluorophenyl)ethyl]-N-(2-{[2-(4-hydroxy-2-oxo-2,3-dihydro-1,3-benzothiazol-7-yl)ethyl]amino}ethyl)-β-alaninamide dihydrobromide salt] | 0.00251 µM | 0.85 | 0.398 µM
O=C(CCNCCc1ccc(Cl)cc1)N(CCNCCc1ccc(O)c2[nH]c(=O)sc12)C1CCCCC1 [Example 13, N^3-[2-(4-Chlorophenyl)ethyl]-N-cyclohexyl-N-(2-{[2-(4-hydroxy-2-oxo-2,3-dihydro-1,3-benzothiazol-7-yl)ethyl]amino}ethyl)-β-alaninamide bis-trifluoroacetic acid salt] | 0.00501 µM | 0.71 | 0.126 µM
O=C(CCNCCc1ccccc1)N(CCNCCc1ccc(O)c2[nH]c(=O)sc12)C1CCCC1 [Example 2, N-Cyclopentyl-N-(2-{[2-(4-hydroxy-2-oxo-2,3-dihydro-1,3-benzothiazol-7-yl)ethyl]amino}ethyl)-N^3-(2-phenylethyl)-β-alaninamide bis-trifluoroacetic acid salt] | 0.00316 µM | 1.04 | 0.251 µM
CCCC(CCC)N(CCNCCc1ccc(O)c2[nH]c(=O)sc12)C(=O)CCNCCc1ccc(F)cc1 [Example 64, N^3-[2-(4-Fluorophenyl)ethyl]-N^1-(2-{[2-(4-hydroxy-2-oxo-2,3-dihydro-1,3-benzothiazol-7-yl)ethyl]amino}ethyl)-N^1-(1-propylbutyl)-β-alaninamide bis-trifluoroacetic acid salt] | 0.316 µM | 0.70 | 0.2 µM
O=C(CCNCCc1ccc(Cl)cc1)N(CCNCCc1ccc(O)c2[nH]c(=O)sc12)C1CCCCCC1 [Example 51, N^3-[2-(4-Chlorophenyl)ethyl]-N^1-cycloheptyl-N^1-(2-{[2-(4-hydroxy-2-oxo-2,3-dihydro-1,3-benzothiazol-7-yl)ethyl]amino}ethyl)-β-alaninamide bis-trifluoroacetic acid salt] | 0.00501 µM | 0.59 | 0.0251 µM
CC(C)(CNCCC(=O)N(CCNCCc1ccc(O)c2[nH]c(=O)sc12)C1CCCC1)c1ccccc1 [Example 32, N-cyclopentyl-N-(2-{[2-(4-hydroxy-2-oxo-2,3-dihydro-1,3-benzothiazol-7-yl)ethyl]amino}ethyl)-N^3-(2-methyl-2-phenylpropyl)-β-alaninamide bis-trifluoroacetic acid salt] | 0.0794 µM | 0.67 | 0.398 µM
O=C(CCNCCc1c(F)cccc1F)N(CCNCCc1ccc(O)c2[nH]c(=O)sc12)C1CCCCCC1 [Example 84, N^1-Cycloheptyl-N^3-[2-(2,6-difluorophenyl)ethyl]-N^1-(2-{[2-(4-hydroxy-2-oxo-2,3-dihydro-1,3-benzothiazol-7-yl)ethyl]amino}ethyl)-β-alaninamide bis-trifluoroacetic acid salt] | 0.02 µM | 0.89 | 0.0794 µM
O=C(CCNCCc1ccc(O)cc1)N(CCNCCc1ccc(O)c2[nH]c(=O)sc12)C1CCCCC1 [Example 34, N-Cyclohexyl-N-(2-{[2-(4-hydroxy-2-oxo-2,3-dihydro-1,3-benzothiazol-7-yl)ethyl]amino}ethyl)-N^3-[2-(4-hydroxyphenyl)ethyl]-β-alaninamide bis-trifluoroacetic acid salt] | 0.002 µM | 0.75 | 0.398 µM
